Literature values as cited in patent US20230157303A1, “Plant-Based Pesticide” (priority 2022, published 2023).

Assays:
Conditions in all cases: in vivo
aquatic wildlife = test system: aquatic wildlife
humans and other mammals = test system: humans and other mammals
honeybees = test system: honeybees

SMILES | toxicity to aquatic wildlife (aquatic wildlife) | toxicity to humans and other mammals (humans and other mammals) | toxicity to honeybees (honeybees)
CC1(C)C(C=C(Cl)Cl)C1C(=O)OC(C#N)c1cccc(Oc2ccccc2)c1 (centres unmarked) [Cypermethrin] | highly toxic | acutely toxic | very highly toxic
CCOP(=S)(OCC)Oc1cc(C)nc(C(C)C)n1 [diazinon, Diazinon] |  |  | toxic
CCOC(=O)CC(SP(=S)(OC)OC)C(=O)OCC (centres unmarked) [malathion, Malathion] |  |  | toxic
